The target of the experiment is human FXR (NR1H4) (Homo sapiens (Human), UniProt Q96RI1). Put plainly: Human FXR (NR1H4) Assay (Gal4 promoter driven luciferase reporter, Indigo Bioscience kit).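 As to Efficacy (%): 100% equals the efficacy of CDCA; efficacy normalized to CDCA set as 100%.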 The format is cell-based. The settings on record: for EC50: Human FXR (NR1H4) Assay, potency ranges; for Emax: read-out: Efficacy (%). Summed up:
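CHO reporter cells expressing human FXR with an FXR-responsive luciferase reporter, treated with compound doses at 0.2% DMSO. Incubation lasted 22 h at 37 °C before luciferase detection reagent was added. Luminescence was then read.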

SMILES strings stand for the structures.

Chain of human FXR (NR1H4) (Q96RI1 whole entry, the tested form may be a part): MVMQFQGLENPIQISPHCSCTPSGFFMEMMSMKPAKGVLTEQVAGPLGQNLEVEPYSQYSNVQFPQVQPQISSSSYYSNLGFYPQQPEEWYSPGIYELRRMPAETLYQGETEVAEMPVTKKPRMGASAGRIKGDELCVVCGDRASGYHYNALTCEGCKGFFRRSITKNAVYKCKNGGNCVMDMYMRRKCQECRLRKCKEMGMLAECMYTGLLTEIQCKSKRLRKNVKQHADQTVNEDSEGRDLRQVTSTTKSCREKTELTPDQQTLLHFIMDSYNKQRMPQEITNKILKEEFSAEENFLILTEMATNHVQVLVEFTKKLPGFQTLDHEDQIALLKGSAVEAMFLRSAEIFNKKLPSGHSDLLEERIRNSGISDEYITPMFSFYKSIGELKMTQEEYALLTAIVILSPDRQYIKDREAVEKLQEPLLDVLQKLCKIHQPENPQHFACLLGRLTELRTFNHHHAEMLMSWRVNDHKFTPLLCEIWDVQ

On to `CC[C@H]1[C@@H](O)[C@@H]2[C@H](CC[C@]3(C)[C@@H]([C@H](C)CCOC(=O)N[C@H]4CCC[C@H]4O)CC[C@@H]23)[C@@]2(C)CC[C@@H](O)C[C@@H]12` [Example 216], for which the concentration giving a half-maximal response (EC50) lay within 100 to 1000 nM and the Emax was 478%.

In the case of `CC[C@H]1[C@@H](O)[C@@H]2[C@H](CC[C@]3(C)[C@@H]([C@H](C)CCOC(=O)N4CC[C@@H](CO)C4)CC[C@@H]23)[C@@]2(C)CC[C@@H](O)C[C@@H]12` [Example 212], the EC50 is below 100 nM and the Emax was found to be 479%.

In the case of `CC[C@H]1[C@@H](O)[C@@H]2[C@H](CC[C@]3(C)[C@@H]([C@H](C)CCOC(=O)NS(=O)(=O)N4CC(F)(F)C4)CC[C@@H]23)[C@@]2(C)CC[C@@H](O)C[C@@H]12` [Example 104-j], the EC50 is below 100 nM and the Emax was 327%.

With `CC[C@H]1[C@@H](O)[C@@H]2[C@H](CC[C@]3(C)[C@@H]([C@H](C)CCCOC(=O)N4CCCCC4)CC[C@@H]23)[C@@]2(C)CC[C@@H](O)C[C@@H]12` [Example 165], the EC50 is 1000 to 10000 nM and the Emax turned out to be 158%.

Consider `CC[C@H]1[C@@H](O)[C@@H]2[C@H](CC[C@]3(C)[C@@H]([C@H](C)CCOC(=O)NS(=O)(=O)c4ccc5c(c4)OCO5)CC[C@@H]23)[C@@]2(C)CC[C@@H](O)C[C@@H]12` [Example 93], for which the EC50 is below 100 nM and the Emax was 288%.

`CC[C@H]1[C@@H](O)[C@@H]2[C@H](CC[C@]3(C)[C@@H]([C@H](C)CCOC(=O)NS(=O)(=O)c4ccc(OC)c(F)c4)CC[C@@H]23)[C@@]2(C)CC[C@@H](O)C[C@@H]12` [Example 94]: the 50% effective concentration (EC50) was below 100 nM and the Emax amounted to 268%.

Consider `CC[C@H]1[C@@H](O)[C@@H]2[C@H](CC[C@]3(C)[C@@H]([C@H](C)COC(=O)NS(=O)(=O)c4ccc(C)cc4)CC[C@@H]23)[C@@]2(C)CC[C@@H](O)C[C@@H]12` [Example 5], for which the EC50 was in the range of 100 to 1000 nM and the Emax was determined as 85%.

Take `CC[C@H]1[C@@H](O)[C@@H]2[C@H](CC[C@]3(C)[C@@H]([C@H](C)CCOC(=O)N(C)OC)CC[C@@H]23)[C@@]2(C)CC[C@@H](O)C[C@@H]12` [Example 164]: the EC50 lay in the range of 100 to 1000 nM and the Emax was 191%.

`CC[C@H]1[C@@H](O)[C@@H]2[C@H](CC[C@]3(C)[C@@H]([C@H](C)COC(=O)NS(=O)(=O)c4ccc(-n5cccn5)cc4)CC[C@@H]23)[C@@]2(C)CC[C@@H](O)C[C@@H]12` [Example 37]: the 50% effective concentration (EC50) is below 100 nM and the Emax was 207%.

Regarding `CC[C@H]1[C@@H](O)[C@@H]2[C@H](CC[C@]3(C)[C@@H]([C@H](C)CCOC(=O)NC(C)(C)C)CC[C@@H]23)[C@@]2(C)CC[C@@H](O)C[C@@H]12` [Example 192], the EC50 was in the range of 1000 to 10000 nM and the Emax is 186%.

Consider `CC[C@H]1[C@@H](O)[C@@H]2[C@H](CC[C@]3(C)[C@@H]([C@H](C)CCOC(=O)NS(=O)(=O)c4ccccc4Cl)CC[C@@H]23)[C@@]2(C)CC[C@@H](O)C[C@@H]12` [Example 76], for which the EC50 was 100 to 1000 nM and the Emax worked out at 234%.

For the compound `CC[C@H]1[C@@H](O)[C@@H]2[C@H](CC[C@]3(C)[C@@H]([C@H](C)CCCOC(=O)NS(=O)(=O)c4ccc(C(C)(C)C)cc4)CC[C@@H]23)[C@@]2(C)CC[C@@H](O)C[C@@H]12` [Example 111], the EC50 was in the range of 100 to 1000 nM and the Emax was found to be 208%.

In the case of `CC[C@H]1[C@@H](O)[C@@H]2[C@H](CC[C@]3(C)[C@@H]([C@H](C)COC(=O)NS(=O)(=O)c4ccc(-n5cnnn5)cc4)CC[C@@H]23)[C@@]2(C)CC[C@@H](O)C[C@@H]12` [Example 44-e], the EC50 is 100 to 1000 nM and the Emax is 204%.

Consider `CC[C@H]1[C@@H](O)[C@@H]2[C@H](CC[C@]3(C)[C@@H]([C@H](C)COC(=O)NC4CC4)CC[C@@H]23)[C@@]2(C)CC[C@@H](O)C[C@@H]12` [Example 198], for which the EC50 fell in the range of 1000 to 10000 nM and the Emax worked out at 139%.

`CC[C@H]1[C@@H](O)[C@@H]2[C@H](CC[C@]3(C)[C@@H]([C@H](C)CCOC(=O)NCCc4ccccn4)CC[C@@H]23)[C@@]2(C)CC[C@@H](O)C[C@@H]12` [Example 186]: the 50% effective concentration (EC50) lay in the range of 100 to 1000 nM and the Emax was found to be 373%.

With `CC[C@H]1[C@@H](O)[C@@H]2[C@H](CC[C@]3(C)[C@@H]([C@H](C)CCOC(=O)NS(=O)(=O)c4ccc(OC)cc4)CC[C@@H]23)[C@@]2(C)CC[C@@H](O)C[C@@H]12` [Example 52], the EC50 is below 100 nM and the Emax was found to be 226%.

Turning to `CC[C@H]1[C@@H](O)[C@@H]2[C@H](CC[C@]3(C)[C@@H]([C@H](C)CCOC(=O)N4CCC(O)CC4)CC[C@@H]23)[C@@]2(C)CC[C@@H](O)C[C@@H]12` [Example 169], the EC50 was 100 to 1000 nM and the Emax came out at 257%.

Consider `CC[C@H]1[C@@H](O)[C@@H]2[C@H](CC[C@]3(C)[C@@H]([C@H](C)COC(=O)NS(=O)(=O)c4ccc(OC(C)(C)C)cc4)CC[C@@H]23)[C@@]2(C)CC[C@@H](O)C[C@@H]12` [Example 30], for which the concentration for a half-maximal effect (EC50) was below 100 nM and the Emax is 261%.

`CC[C@H]1[C@@H](O)[C@@H]2[C@H](CC[C@]3(C)[C@@H]([C@H](C)COC(=O)NS(=O)(=O)c4ccc(-n5ccnn5)cc4)CC[C@@H]23)[C@@]2(C)CC[C@@H](O)C[C@@H]12` [Example 44-g]: the EC50 was below 100 nM and the Emax came out at 209%.

On to `CC[C@H]1[C@@H](O)[C@@H]2[C@H](CC[C@]3(C)[C@@H]([C@H](C)CCOC(=O)Nc4cncc(Cl)c4)CC[C@@H]23)[C@@]2(C)CC[C@@H](O)C[C@@H]12` [Example 194], for which the concentration for a half-maximal effect (EC50) was 1000 to 10000 nM and the Emax came out at 170%.

As for `CC[C@H]1[C@@H](O)[C@@H]2[C@H](CC[C@]3(C)[C@@H]([C@H](C)CCOC(=O)N4CCN(c5ccccc5OC)CC4)CC[C@@H]23)[C@@]2(C)CC[C@@H](O)C[C@@H]12` [Example 170], the EC50 is below 100 nM and the Emax turned out to be 283%.

As for `CC[C@H]1[C@@H](O)[C@@H]2[C@H](CC[C@]3(C)[C@@H]([C@H](C)COC(=O)NS(=O)(=O)c4ccc5ncccc5c4)CC[C@@H]23)[C@@]2(C)CC[C@@H](O)C[C@@H]12` [Example 23], the EC50 was below 100 nM and the Emax worked out at 182%.

`CC[C@H]1[C@@H](O)[C@@H]2[C@H](CC[C@]3(C)[C@@H]([C@H](C)CCOC(=O)Nc4ccccc4)CC[C@@H]23)[C@@]2(C)CC[C@@H](O)C[C@@H]12` [Example 191]: the EC50 was 1000 to 10000 nM and the Emax worked out at 330%.

On to `CC[C@H]1[C@@H](O)[C@@H]2[C@H](CC[C@]3(C)[C@@H]([C@H](C)CCOC(=O)NC(C)C)CC[C@@H]23)[C@@]2(C)CC[C@@H](O)C[C@@H]12` [Example 136], for which the EC50 was in the range of 100 to 1000 nM and the Emax stood at 185%.

In the case of `CC[C@H]1[C@@H](O)[C@@H]2[C@H](CC[C@]3(C)[C@@H]([C@H](C)COC(=O)NS(=O)(=O)c4ccc(C(C)(C)C)cc4)CC[C@@H]23)[C@@]2(C)CC[C@@H](O)C[C@@H]12` [Example 4], the EC50 is below 100 nM and the Emax stood at 319%.

As for `CC[C@H]1[C@@H](O)[C@@H]2[C@H](CC[C@]3(C)[C@@H]([C@H](C)COC(=O)NS(=O)(=O)C4CCCCC4)CC[C@@H]23)[C@@]2(C)CC[C@@H](O)C[C@@H]12` [Example 8], the EC50 lay within 100 to 1000 nM and the Emax amounted to 327%.

As to `CC[C@H]1[C@@H](O)[C@@H]2[C@H](CC[C@]3(C)[C@@H]([C@H](C)CCOC(=O)NS(=O)(=O)Cc4ccccc4)CC[C@@H]23)[C@@]2(C)CC[C@@H](O)C[C@@H]12` [Example 56], the half-maximal effective concentration (EC50) was below 100 nM and the Emax is 326%.

With `CC[C@H]1[C@@H](O)[C@@H]2[C@H](CC[C@]3(C)[C@@H]([C@H](C)CCOC(=O)NCC(C)C)CC[C@@H]23)[C@@]2(C)CC[C@@H](O)C[C@@H]12` [Example 137], the EC50 lay in the range of 100 to 1000 nM and the Emax stood at 270%.

Regarding `CC[C@H]1[C@@H](O)[C@@H]2[C@H](CC[C@]3(C)[C@@H]([C@H](C)CCOC(=O)NS(=O)(=O)N4CC(C)(C)C4)CC[C@@H]23)[C@@]2(C)CC[C@@H](O)C[C@@H]12` [Example 104-g], the EC50 is below 100 nM and the Emax is 289%.

As for `CC[C@H]1[C@@H](O)[C@@H]2[C@H](CC[C@]3(C)[C@@H]([C@H](C)COC(=O)NS(=O)(=O)c4ccc(C(C)(C)C)s4)CC[C@@H]23)[C@@]2(C)CC[C@@H](O)C[C@@H]12` [Example 44-j], the 50% effective concentration (EC50) is below 100 nM and the Emax worked out at 170%.

With `CC[C@H]1[C@@H](O)[C@@H]2[C@H](CC[C@]3(C)[C@@H]([C@H](C)CCOC(=O)NS(=O)(=O)c4ccc(-c5ccccc5)cc4)CC[C@@H]23)[C@@]2(C)CC[C@@H](O)C[C@@H]12` [Example 68], the concentration for a half-maximal effect (EC50) is 100 to 1000 nM and the Emax came to 286%.

Turning to `CC[C@H]1[C@@H](O)[C@@H]2[C@H](CC[C@]3(C)[C@@H]([C@H](C)CCOC(=O)NS(=O)(=O)c4ccc(C(C)(C)C)cc4)CC[C@@H]23)[C@@]2(C)CC[C@@H](O)C[C@@H]12` [Example 45], the EC50 is below 100 nM and the Emax turned out to be 235%.

On to `CC[C@H]1[C@@H](O)[C@@H]2[C@H](CC[C@]3(C)[C@@H]([C@H](C)CCOC(=O)NS(=O)(=O)c4cc(C(F)(F)F)cc(C(F)(F)F)c4)CC[C@@H]23)[C@@]2(C)CC[C@@H](O)C[C@@H]12` [Example 104-h], for which the concentration giving a half-maximal response (EC50) was in the range of 1000 to 10000 nM and the Emax is 208%.
